# Data from patent US20150087723A1, “MICROBIAL COMPOSITION” (Rohm and Haas Company, priority 2011, published 2015).
# “And” between values parts separate entries of the source, which are not always exact repeats. Equal entries are not always repeated. Where two headings read alike, the source gives them in different places.
# Columns and labels:
# [1] = test system: Escherichia coli (E. coli—ATCC #10536); test: Automated assessment of efficacy in model surfactant base (2.85% sodium cocoyl glycinate + 1.85% sodium lauroamphoacetate, pH 10), 15 seconds exposure, OD450/OD590 readout; type: cell-based; details: for MBC: Escherichia coli, ATCC10536, 15 s; for No. of replicates showing growth (out of 4) / Δ OD 450 nm = OD450 (time = 16 hours) - OD450 (time zero), Mean / Δ OD 590 nm OD590 (time = 16 hours) - OD590 (time zero), Mean: model surfactant solution
# Procedure: Solutions were prepared such that the concentrations of the surfactant components and test actives were 1.1×x the final desired concentration in order to allow for dilution with the bacterial inoculum in the test. The solutions were manually adjusted to pH 10.0 by drop wise addition of sodium hydroxide solution, as measured with a phi meter at ambient temperature.
# Tests were conducted using standard microtiter plate assays using an automated liquid handling system, 270 μl of the surfactant test solution was pipetted into each well of the microtitre plate and 30 μl of the bacterial suspension was then added. After exactly 15 seconds of bacterial exposure, a 30 μl volume of bacterial cells was withdrawn and transferred to 270 μl of D/E quench solution. After 5 minutes in the D/E quench, the optical density (OD) was measured for each plate in turn at two specific wavelengths (450 nm and 590 nm). These provide a dual check of antimicrobial activity, as the OD450 reading is specific for the yellow colour of D/E quench when bacterial growth is observed, whereas OD590 is specific for the initial purple colour of the D/E quench which is retained if no bacterial growth is observed. After the time zero OD measurements, plates were then incubated at 37° C. overnight (16 hours) before repeating the OD measurements. Delta OD values were calculated by subtracting […] the initial value at time zero. Bacterial growth is observed as an increase in OD450 and a decrease in ΔOD590. To identify antibacterially efficacious systems (those preventing appreciable bacterial growth after incubation), the following threshold changes in OD readings have been adopted: if (1), OD450 increases by less than 0.2 absorbance unit on incubation and (2). OD590 decreases by less than 0.35 unit on incubation. Conversely, where OD450 increases by more than 0.2 AU and OD590 decreases by more than 0.35 unit after incubation, corresponding to a colour shift from purple to yellow, the test system allows bacterial growth and is not deemed efficacious. Four replicate measurements in the same plate have been made for each test system. The number of replicate wells showing either bacterial growth or no growth is also readily assessed by eye by following the colour change.
# Dose responses for individual components and binary mixtures of actives at a used concentration ratio were generated by sequential dilution of liquors with further surfactant solution to obtain a series of endpoints.
# In some selected cases, the combinations were also tested at the weight ratio 1:1.
# [2] = test system: Escherichia coli (E. coli—ATCC #10536); test: Synergy test: high resolution MBC microtiter plate assay, phosphate buffer containing 35% dipropylene glycol, 15 seconds contact; type: cell-based; details: E. coli 10536; for SI (Synergy Index = Qa/QA + Qb/QB): at Qa and Qb, <1 synergy, 1 additivity, >1 antagonism; for Qa: MBC of the first component (A) acting alone (QA): component alone (Qb = 0)
# Text: One measure of synergy is -the industrially accepted method described by Kull, F. C.; Eisman, P. C.; Sylwestrowicz, H. D. and Mayer, R. L., in Applied Microbiology 9:538-541 (1961), using the ratio determined by the formula:
# Qa/QA+Qb/QB=Synergy Index (“SI”)
# wherein: QA=concentration of compound A (first component) in percent, acting alone, which produced an end point (MBC of Compound A). Qa =concentration of compound A in percent, in the mixture, which produced an end point. QB=concentration of compound B (second component) in percent, acting alone, which produced an end point (MBC of Compound B). Qb=concentration of compound B in percent, in the mixture, which produced an end point.
# When the sum of Qa/QA and Qb/QB is greater than one, antagonism is indicated. […] The lower the SI, the greater is the synergy shown by that particular mixture. The minimum biocidal concentration (MBC) of a microbicide is the lowest concentration tested under a specific set of conditions that provides complete kill of the tested microorganisms.
# Synergy tests were-conducted using standard microtiter plate assays with, phosphate buffer containing 35% dipropylene glycol (DPG). In this method, a wide range of combinations of chemicals was tested by conducting high resolution MBC assays of Component (A) in the presence of various concentrations of Component (B). High resolution MBCs were determined by adding varying amounts of microbicide to one column of a microtiter plate and doing subsequent ten-fold dilutions using an automated liquid handling system to obtain a series of closely spaced endpoints. The MBC plate was inoculated one column at a time with the test microorganism. An aliquot of the inoculated well was transferred at 15 seconds to a plate containing a neutralizing agent (D/E Neutralizing Broth), mixed and held for 5 minutes before being transferred to a growth plate containing trypticase soy broth (TSB). The TSB plate was incubated at 37° C. and read for the presence/absence of growth at 24 hours. The lowest level tested that provided complete kill (as evidenced by no growth in the microtitre plate) of the test organisms in 15 seconds is the minimum biocidal concentration (MBC).
# The synergy of the combinations of the present invention was determined against a bacterium, Escherichia coli (E. coli—ATCC #10536), at a concentration of approximately 1×10^8 bacteria per mL. This microorganism is representative of natural contaminants in many consumer and industrial applications.
# [3] = in 2.85% sodium cocoyl glycinate + 1.85% sodium lauroamphoacetate solution at pH 10, E. coli, read-out: MBC (% w/v)
Structure (SMILES),"MBC [1, 3] [µg/mL]",No. of replicates showing growth (out of 4) ([1]; component alone at 0.125% w/v),"Δ OD 450 nm = OD450 (time = 16 hours) - OD450 (time zero), Mean ([1]; component alone at 0.125% w/v)","Δ OD 590 nm OD590 (time = 16 hours) - OD590 (time zero), Mean ([1]; component alone at 0.125% w/v)",No. of replicates showing growth (out of 4) ([1]; component alone at 0.2% w/v),"Δ OD 450 nm = OD450 (time = 16 hours) - OD450 (time zero), Mean ([1]; component alone at 0.2% w/v)","Δ OD 590 nm OD590 (time = 16 hours) - OD590 (time zero), Mean ([1]; component alone at 0.2% w/v)",No. of replicates showing growth (out of 4) ([1]; component alone at […] w/v),SI (Synergy Index = Qa/QA + Qb/QB) [2],Qa: MBC of the first component (A) acting alone (QA) ([2]; complete kill in 15 seconds) [weight %],No. of replicates showing growth (out of 4) ([1]; component alone at 0.05% w/v),"Δ OD 450 nm = OD450 (time = 16 hours) - OD450 (time zero), Mean ([1]; component alone at 0.05% w/v)","Δ OD 590 nm OD590 (time = 16 hours) - OD590 (time zero), Mean ([1]; component alone at 0.05% w/v)","Δ OD 450 nm = OD450 (time = 16 hours) - OD450 (time zero), Mean ([1]; component alone at […] w/v)","Δ OD 590 nm OD590 (time = 16 hours) - OD590 (time zero), Mean ([1]; component alone at […] w/v)",other results
CCCc1cccc(O)c1 [3-n-propylphenol],> 2000,4 out of 4,−0.59,0.57,4 out of 4,−0.57,0.56,4 out of 4,1.00,0.5,–,–,–,–,–,–
Cc1ccc(C(C)(C)C)c(O)c1 [2-tert-butyl-5-methylphenol],2000,4 out of 4,−1.45,0.32,–,–,–,4 out of 4,–,–,4 out of 4,−1.50,0.29,−1.47,0.28,"No. of replicates showing growth (out of 4) ([1]; component alone at 0.175% w/v): 4 out of 4; Δ OD 450 nm = OD450 (time = 16 hours) - OD450 (time zero), Mean ([1]; component alone at 0.175% w/v): −1.30; Δ OD 590 nm OD590 (time = 16 hours) - OD590 (time zero), Mean ([1]; component alone at 0.175% w/v): 0.47"
Cc1ccc(C(C)C)cc1O [5-isopropyl-2-methylphenol],–,–,–,–,4 out of 4,−0.52,0.62,4 out of 4,1.00,–,–,–,–,–,–,"MBC ([1]; pH 10, read-out: MBC (% w/v)): > 2000 µg/mL; No. of replicates showing growth (out of 4) ([1]; component alone at 0.1% w/v): 4 out of 4; Δ OD 450 nm = OD450 (time = 16 hours) - OD450 (time zero), Mean ([1]; component alone at 0.1% w/v): −0.52; Δ OD 590 nm OD590 (time = 16 hours) - OD590 (time zero), Mean ([1]; component alone at 0.1% w/v): 0.62"
"CC(C)=CCC/C(C)=C\CO [cis-3,7-dimethyl-2,6-octadien-1-ol]",> 5000,–,–,–,4 out of 4,−0.53,0.60,–,1.00,–,–,–,–,–,–,"No. of replicates showing growth (out of 4) ([1]; component alone at 0.3% w/v): 4 out of 4; Δ OD 450 nm = OD450 (time = 16 hours) - OD450 (time zero), Mean ([1]; component alone at 0.3% w/v): −0.51; Δ OD 590 nm OD590 (time = 16 hours) - OD590 (time zero), Mean ([1]; component alone at 0.3% w/v): 0.61; No. of replicates showing growth (out of 4) ([1]; component alone at 0.4% w/v): 4 out of 4; Δ OD 450 nm = OD450 (time = 16 hours) - OD450 (time zero), Mean ([1]; component alone at 0.4% w/v): −0.48; Δ OD 590 nm OD590 (time = 16 hours) - OD590 (time zero), Mean ([1]; component alone at 0.4% w/v): 0.62; No. of replicates showing growth (out of 4) ([1]; component alone at 0.5% w/v): 2 out of 4; Δ OD 450 nm = OD450 (time = 16 hours) - OD450 (time zero), Mean ([1]; component alone at 0.5% w/v): −0.14; Δ OD 590 nm OD590 (time = 16 hours) - OD590 (time zero), Mean ([1]; component alone at 0.5% w/v): 0.40; Qb: MBC of the second component (B) acting alone (QB) ([2]; component alone (Qa = 0), complete kill in 15 seconds): 0.25 weight % and 0.3 weight % and 0.5 weight %"
CC(C)(C)c1cccc(O)c1 [3-tert-butylphenol],> 2000,4 out of 4,−0.45,0.65,4 out of 4,−0.47,0.64,4 out of 4,1.00,0.3,–,–,–,−0.43,0.65,–
Cc1cc(O)ccc1C(C)C [4-isopropyl-3-methylphenol],> 2000,–,–,–,4 out of 4,−1.41,0.36,4 out of 4,1.00,–,4 out of 4,−1.52,0.25,−1.53,0.27,"No. of replicates showing growth (out of 4) ([1]; component alone at 0.1% w/v): 4 out of 4; Δ OD 450 nm = OD450 (time = 16 hours) - OD450 (time zero), Mean ([1]; component alone at 0.1% w/v): −1.50; Δ OD 590 nm OD590 (time = 16 hours) - OD590 (time zero), Mean ([1]; component alone at 0.1% w/v): 0.24"
CCCc1ccccc1O [2-propyphenol],–,–,–,–,–,–,–,–,–,–,4 out of 4,−1.43,0.46,–,–,–
Cc1cc(O)cc(C(C)C)c1 [3-isopropyl-5-methylphenol],–,–,–,–,–,–,–,–,1.00,–,–,–,–,–,–,–
CC(C)(C)c1ccccc1O [2-tert-butylphenol],2000,4 out of 4,−1.48,0.30,–,–,–,4 out of 4,1.00,–,4 out of 4,−1.58,0.22,−1.50,0.28,"No. of replicates showing growth (out of 4) ([1]; component alone at 0.175% w/v): 4 out of 4; Δ OD 450 nm = OD450 (time = 16 hours) - OD450 (time zero), Mean ([1]; component alone at 0.175% w/v): −1.08; Δ OD 590 nm OD590 (time = 16 hours) - OD590 (time zero), Mean ([1]; component alone at 0.175% w/v): 0.57; Phenol MBC %(w/v) ([1]; phenol alone, model surfactant, E. Coli): 0.2 %(w/v)"
CCCCc1ccc(O)cc1 [4-n-butylphenol],–,–,–,–,–,–,–,–,1.00,0.2,–,–,–,–,–,–
